We go through 2 compounds from US10561704B2, “Compositions and methods for treating neuropsychiatric disorders using an endothelin-B receptor agonist” (MIDWESTERN UNIVERSITY, priority 2013, dated 2020).

*1 amine or outer side, *2 acyl side, *3 side chain or, on linkers, in order; H or OH if unused. Where no end group is shown, it is not given here. Suc = O=C(CCC(=O)[*:2])[*:1]

For assay [1], the system named is middle cerebral artery occluded rats. Nature of the assay: 7 day survival following focal cerebral ischemia (MCAO). Format: in vivo. On the procedure:
FIG. 13: Effect of ETB receptor agonist, IRL-1620, in presence and absence of BQ788 on 7 day survival of rats undergoing either sham surgery or middle cerebral artery occlusion.
Effect of IRL-1620 on 7 day survival of rats following focal cerebral ischemia: Studies were also conducted to determine the effect of stimulating ETB receptors using a selective agonist, IRL-1620, in rats with middle cerebral artery occlusion (MCAO). […] However, MCAO rats in the vehicle treated group presented with 38% mortality by 7th day. […] Preliminary results and supporting literature have prompted the investigation of the mechanism involved in neuroprotective and neurorestorative effects of stimulating ETB receptors in rats with cerebral ischemia.

Assay [2] shares this test system. Nature of the assay: Angiogenesis and neurogenesis markers (ETB, NeuN, BrdU, VEGF, NGF) following cerebral ischemia. In kind it is in vivo. The procedure: FIG. 16: Effect of ETB receptor agonist, IRL-1620 (three doses of 5 μg/kg, i.v., at 2, 4 and 6 h post ischemia), and antagonist, BQ788 (1 mg/kg, i.v.), on neuronal nuclei (NeuN) post middle cerebral artery occlusion. (A) Representative image of the cortex of an IRL-1620-treated animal 1 week following MCAO, stained for the ETB receptor (green) and NeuN (red). Scale bar=100 μm. (B) Representative image of the striatum of an IRL-1620-treated animal 1 week following MCAO, stained for the ETB receptor (green) and NeuN (red). Scale bar=10 μm. (C) Number of neuronal nuclei per 100 μm^2 in the cortex, striatum, and subventricular zone of middle cerebral artery occluded rats at 24 h after infarct. *P<0.05 vs. sham. ^#P<0.01 vs. MCAO+vehicle. ^@P<0.0001 vs. MCAO+IRL-1620. (D) Number of neuronal nuclei per 100 μm^2 in the cortex, striatum, and subventricular zone of middle cerebral artery occluded rats at 1 week after infarct. Values are expressed as mean±SEM (n=5/group). *P<0.0001 vs. sham. ^#P<0.0001 vs. MCAO+vehicle. ^@P<0.0001 vs. MCAO+IRL-1620.
FIG. 17: Effect of ETB receptor agonist, IRL-1620 (3 doses of 5 μg/kg, i.v., at 2, 4 and 6 hours post ischemia), and antagonist, BQ788 (1 mg/kg, i.v.), on proliferating cells post middle cerebral artery occlusion. Representative image of the cortex of an IRL-1620-treated animal 1 week following MCAO depicting a cerebral blood vessel, stained for the ETB receptor (green) and BrdU (red). Scale bar=100 μm. […] Values are expressed as mean±SEM (n=5/group). *P<0.01 vs. sham. #P<0.0001 vs. MCAO+vehicle. @P<0.0001 vs. MCAO+IRL-1620.
FIG. 19: Effect of ETB receptor agonist, IRL-1620 (3 doses of 5 μg/kg, i.v., at 2, 4 and 6 hours post ischemia), and antagonist, BQ788 (1 mg/kg, i.v.), on vascular endothelial growth factor (VEGF) post middle cerebral artery occlusion. […] Values are expressed as mean±SEM (n=5/group). *P<0.01 vs. sham. #P<0.01 vs. MCAO+vehicle. @P<0.05 vs. MCAO+IRL-1620.
FIG. 21: Effect of ETB receptor agonist, IRL-1620 (3 doses of 5 μg/kg, i.v., at 2, 4 and 6 hours post ischemia), and antagonist, BQ788 (1 mg/kg, i.v.), on nerve growth factor (NGF) post middle cerebral artery occlusion. A. Representative image of the cortex of an IRL-1620-treated animal 1 week following MCAO, stained for the ETB receptor (green) and NGF (red). Scale bar=10 μm. B. Number of NGF+cells per 100 μm^2 in the cortex, striatum, and subventricular zone of middle cerebral artery occluded rats at 1 week after infarct. Values are expressed as mean±SEM (n=5/group). #P<0.0001 vs. MCAO+vehicle. @P<0.0001 vs. MCAO+IRL-1620.
Effect of IRL-1620 on angiogenesis and neurogenesis following cerebral ischemia in rats: Angiogenesis and neurogenesis are the driving forces for the neurovascular remodeling that is essential post-stroke to restore normal brain function (Hawkins and Davis, 2005). VEGF is an endogenous protein known for its ability to promote angiogenesis and enhance vascular permeability. Under hypoxic conditions such as cerebral ischemia, VEGF expression is induced in neurons, astrocytes and endothelial cells via hypoxia-inducible factor-1 (HIF-1) (Breier and Risau, 1996). Once expressed, VEGF initiates both direct and indirect neuroprotective actions, inhibiting apoptosis, stimulating neurogenesis and angiogenesis, increasing glucose uptake and activating antioxidants (Gora-Kupilas and Josko, 2005). It has been shown that intracerebroventricular (i.c.v.) administration of an ETB receptor agonist in normal rats stimulates production of VEGF and activates VEGF receptors in the brain, while, in cultured astrocytes, this agonist increases VEGF-A mRNA as well as BrdU incorporation (Koyama et al., 2012; Koyama et al., 2011). ETB receptor agonist, IRL-1620, has been shown in our previous studies, to provide significant neuroprotection at both 24 hours and 1 week following permanent cerebral ischemia. […]

Turning to `CCCC[C@@H](NC(=O)[C@@H](Cc1cn(C(=O)OC)c2ccccc12)NC(=O)[C@H](CC(C)(C)C)NC(=O)N1[C@H](C)CCC[C@@H]1C)C(=O)O` [BQ788, reference compound], the “Mortality during 7 day observation” value in assay [1] was found to be 25%. Further, the “Effects of IRL-1620 treatment (neurovascular remodeling)” value in assay [2] (pretreatment with BQ-788) was “blocked”.
Take “Suc-Asp-Glu-Glu-Ala-Val-Tyr-Phe-Ala-His-Leu-Asp-Ile-Ile-Trp (Suc-DEEAVYFAHLDIIW) [IRL-1620]”: the “Mortality during 7 day observation” value in assay [1] was “no mortality”. In addition, in assay [2] (1 week after MCAO), the “Number of proliferating cells in the infarcted brain” value is “increased number”. Also, the “VEGF-positive vessels/30 μm brain slice” value in assay [2] (1 week following MCAO) is listed as 11.33±2.13. The “ETB receptor expression in cortex, striatum and SVZ” value in assay [2] (24 hours post occlusion) is reported as “increased”. Also, in assay [2] (24 hours post occlusion), the “Neuronal numbers in cortex, striatum and SVZ” value was “preserved”. Besides, the “Number of blood vessels labeled with VEGF” value in assay [2] (24 hours post occlusion, vs vehicle treatment) was “enhanced”. Also, the “NGF-positive cells per 100 μm^2” value in assay [2] (SVZ, 1 week after MCAO) came out at 3.05±0.38 per 100 μm^2; in assay [2] (cortex, 1 week after MCAO), 2.29±0.31 per 100 μm^2; in assay [2] (striatum, 1 week after MCAO) it was 2.08±0.26 per 100 μm^2.
